For this experiment, the target named is T1, PAPD5 (Homo sapiens, UniProt Q8NDF8).
T1 construct: made in house
Nature of the experiment: High-throughput luminescence (KinaseGlo) RNA polyadenylation assay, ATP utilization by recombinant PAPD5. The experiment is classed as biochemical. As to conditions: Table 4 (entries of Table 5), ratio of luminescence with inhibitor to DMSO; for Fold-change determined at compound concentration 33 μM: 33 μM compound; for Fold-change determined at compound concentration 100 μM: 100 μM compound, higher = higher inhibition. The procedure, abridged: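 Values are ratios of inhibitor to DMSO luminescence, so larger numbers mean less ATP consumed. Screening was run in duplicate with a 2 h room-temperature reaction of recombinant PAPD5, ATP and oligo RNA substrate plus compound. Residual ATP was detected after a 10 min KinaseGlo step.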
(In general: Kinase-Glo reads ATP consumption through a luciferase reaction.)

T1 sequence (Q8NDF8 68-698 isoform Q8NDF8-5): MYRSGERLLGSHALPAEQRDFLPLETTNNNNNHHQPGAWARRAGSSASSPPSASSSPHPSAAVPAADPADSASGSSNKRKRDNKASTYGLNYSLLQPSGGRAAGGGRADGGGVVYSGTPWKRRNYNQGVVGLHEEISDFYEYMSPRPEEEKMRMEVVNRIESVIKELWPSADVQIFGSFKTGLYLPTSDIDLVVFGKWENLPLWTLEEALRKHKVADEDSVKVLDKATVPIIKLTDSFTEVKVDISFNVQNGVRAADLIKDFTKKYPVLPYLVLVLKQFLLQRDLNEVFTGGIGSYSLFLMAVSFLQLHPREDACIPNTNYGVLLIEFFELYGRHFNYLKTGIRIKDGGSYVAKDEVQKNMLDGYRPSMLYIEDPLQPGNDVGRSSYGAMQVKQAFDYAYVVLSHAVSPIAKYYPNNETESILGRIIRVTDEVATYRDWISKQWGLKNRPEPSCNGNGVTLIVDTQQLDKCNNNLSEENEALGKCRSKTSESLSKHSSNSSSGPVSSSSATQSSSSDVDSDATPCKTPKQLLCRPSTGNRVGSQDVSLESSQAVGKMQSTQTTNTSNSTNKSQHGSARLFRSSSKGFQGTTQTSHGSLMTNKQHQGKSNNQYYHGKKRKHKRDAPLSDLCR

For the compound `CCOC(=O)c1c(NC(=O)CSc2n[nH]c3nc(=O)cc(C)n23)sc2c1CCCCC2` [Entry 200, ethyl 2-[[2-[(5-methyl-7-oxo-1H-[1,2,4]triazolo[4,3-a]pyrimidin-3-yl)sulfanyl]acetyl]amino]-5,6,7,8-tetrahydro-4H-cyclohepta[b]thiophene-3-carboxylate], the “Fold-change determined at compound concentration 33 μM” value is 1.038 and the “Fold-change determined at compound concentration 100 μM” value was 1.414.

`O=C(NC1CC1)c1ccc(Cn2c(SCc3ccccc3Cl)nc3ccncc32)cc1` [Entry 202, 4-({2-[(2-chlorobenzyl)thio]-3H-imidazo[4,5-c]pyridin-3-yl]methyl)-N-cyclopropylbenzamide]: the “Fold-change determined at compound concentration 33 μM” value came out at 1.164 and the “Fold-change determined at compound concentration 100 μM” value is 1.361.

In the case of `O=C(NCCN1CCCC1)c1ccc(Cn2c(SCc3ccc(Cl)cc3)nc3ccncc32)cc1` [Entry 203, 4-({2-[(4-chlorobenzyl)thio]-3H-imidazo[4,5-c]pyridin-3-yl}methyl)-N-(2-pyrrolidin-1-ylethyl)benzamide], the “Fold-change determined at compound concentration 33 μM” value came out at 1.106 and the “Fold-change determined at compound concentration 100 μM” value turned out to be 1.31.

Turning to `Cc1nn(-c2ccc(Cl)cc2)c2sc(C(=O)O)cc12` [Entry 204, 1-(4-Chloro-phenyl)-3-methyl-1H-thieno[2,3-c]pyrazole-5-carboxylic acid], the “Fold-change determined at compound concentration 33 μM” value was found to be 1.073 and the “Fold-change determined at compound concentration 100 μM” value is reported as 1.229.

With `Cn1nc(-c2ccc(Cl)cc2)c2cc(C(=O)O)sc21` [Entry 205, 3-(4-chlorophenyl)-1-methylthieno[2,3-c]pyrazole-5-carboxylic acid], the “Fold-change determined at compound concentration 33 μM” value came out at 1.232 and the “Fold-change determined at compound concentration 100 μM” value is given as 2.055.

Take `CCS(=O)(=O)c1nc2ccc(NS(=O)(=O)c3ccc(F)c(F)c3)cc2s1` [Entry 206, N-(2-(ethylsulfonyl)benzo[d]thiazol-6-yl)-3,4-difluorobenzenesulfonamide]: the “Fold-change determined at compound concentration 33 μM” value was determined as 1.08 and the “Fold-change determined at compound concentration 100 μM” value was found to be 1.225.

As for `COc1ccc(OC)c2sc(N(CCCN(C)C)C(=O)c3ccco3)nc12` [Entry 207, N-(4,7-dimethoxy-1,3-benzothiazol-2-yl)-N-[3-(dimethylamino)propyl]furan-2-carboxamide], the “Fold-change determined at compound concentration 33 μM” value was 1.118 and the “Fold-change determined at compound concentration 100 μM” value turned out to be 1.2.

With `Cc1ccc(-c2n[nH]c(=O)c3c2CCCC3)cc1S(=O)(=O)Nc1ccc(S(N)(=O)=O)cc1` [Entry 208, N-[4-(aminosulfonyl)phenyl]-2-methyl-5-(4-oxo-3,4,5,6,7,8-hexahydrophthalazin-1-yl)benzenesulfonamide], the “Fold-change determined at compound concentration 33 μM” value is listed as 1.211 and the “Fold-change determined at compound concentration 100 μM” value is 1.492.

As for `O=C(Cn1nc(Cc2ccncc2)c2ccccc2c1=O)N1CC=C(c2ccccc2)CC1` [Entry 209, 2-[2-oxo-2-(4-phenyl-3,6-dihydropyridin-1(2H)-yl)ethyl]-4-(pyridin-4-ylmethyl)phthalazin-1(2H)-one], the “Fold-change determined at compound concentration 33 μM” value came out at 1.093 and the “Fold-change determined at compound concentration 100 μM” value is 1.274.

As to `O=C(O)c1csc2nc[nH]c(=O)c12` [Entry 210, 4-Oxo-3,4-dihydrothieno[2,3-d]pyrimidine-5-carboxylic acid], the “Fold-change determined at compound concentration 33 μM” value was 1.136 and the “Fold-change determined at compound concentration 100 μM” value was 1.311.

With `CCOC(=O)Cn1cnc2sc3c(c2c1=O)CCCC3` [Entry 211, Ethyl (4-oxo-5,6,7,8-tetrahydro[1]benzothieno[2,3-d]pyrimidin-3(4H)-yl)acetate], the “Fold-change determined at compound concentration 33 μM” value was found to be 1.065 and the “Fold-change determined at compound concentration 100 μM” value was 1.217.

Consider `O=C1c2cnccc2CN1c1cc(F)ccc1F` [Entry 212, 2-(2,5-difluorophenyl)-1H-pyrrolo[3,4-c]pyridin-3-one], for which the “Fold-change determined at compound concentration 33 μM” value came to 1.077 and the “Fold-change determined at compound concentration 100 μM” value was 1.799.
